This assay addresses T1, MAP4K1 (HPK1) (Homo sapiens, UniProt Q92918).
T1 construct: purchased Invitrogen
Kind of assay: Inhibition of MAP4K1 biochemical enzymatic activity (EZReader 2 electrophoretic mobility shift). To be noted: HPK1 (Invitrogen), S6K2tide 1.5 μM, 120 min; ATP 26 μM or 1000 μM (not given). The text has this: MAP4K1 (HPK1) and relevant off-target enzymatic activity was monitored using the Perkin Elmer electrophoretic mobility shift technology platform—the EZReader 2. […] Within the linear, steady-state phase of the kinase enzymatic reaction, the mixed pool of phosphorylated (product) and non-phosphorylated (substrate) peptides was passed through the microfluidic system of the PerkinElmer EZ Reader 2, under an applied electric potential difference. The presence of the phosphate group on the product peptide provided a difference in mass and charge between that of the substrate peptide, resulting in a separation of the substrate and product pools in the sample (Perrin et al. 2010). As the product and substrate peptide mixture passes the lasers within the instrument, these pools are detected (λex=488 nm, λem=568 nm) and resolved as separate peaks. The ratio between these peaks reflects the activity of the compound at that concentration, in that well, under those conditions.
Inhibitors were dissolved in 100% DMSO at a stock concentration of 10 mM. A 100×, 10-point, 4-fold serial dilution of each inhibitor was created in 100% DMSO either manually or on a Hamilton STAR liquid handler, starting at a relevant concentration, usually 1 mM. A volume of 0.130 μL of each concentration was transferred to the relevant wells of a 384-well plate (Greiner 781 201) in duplicate using a TTPLabtech Mosquito nano-litre dispenser. Using a Multidrop Combi, the remaining constituents of the kinase reaction were added to the 130 nL of dosed compound as follows (see table below for final reaction details):
Enzyme activity assays at the ^APPKM for ATP or 1 mM ATP: In each well of a 384-well plate, 0.1-15 nM of untreated enzyme was incubated in a total of 13 μL of buffer (100 mM HEPES pH 7.5, 0.015% Brij 35, 10 mM MgCl2, 1 mM DTT) with 1.5 μM fluorescent peptid and 20-1000 μM ATP, at 25° C., for 60-180 minutes in the presence or absence of a dosed concentration series of compound (1% DMSO final concentration). The kinase reactions were stopped by the addition of 70 μl of Stop buffer (100 mM HEPES pH 7.5, 0.015% Brij 35, 35 mM EDTA and 0.2% of Coating Reagent 3 (Caliper Lifesciences)). The plates were read on a Caliper EZReader 2 as described above.
T1 sequence (Q92918 whole entry): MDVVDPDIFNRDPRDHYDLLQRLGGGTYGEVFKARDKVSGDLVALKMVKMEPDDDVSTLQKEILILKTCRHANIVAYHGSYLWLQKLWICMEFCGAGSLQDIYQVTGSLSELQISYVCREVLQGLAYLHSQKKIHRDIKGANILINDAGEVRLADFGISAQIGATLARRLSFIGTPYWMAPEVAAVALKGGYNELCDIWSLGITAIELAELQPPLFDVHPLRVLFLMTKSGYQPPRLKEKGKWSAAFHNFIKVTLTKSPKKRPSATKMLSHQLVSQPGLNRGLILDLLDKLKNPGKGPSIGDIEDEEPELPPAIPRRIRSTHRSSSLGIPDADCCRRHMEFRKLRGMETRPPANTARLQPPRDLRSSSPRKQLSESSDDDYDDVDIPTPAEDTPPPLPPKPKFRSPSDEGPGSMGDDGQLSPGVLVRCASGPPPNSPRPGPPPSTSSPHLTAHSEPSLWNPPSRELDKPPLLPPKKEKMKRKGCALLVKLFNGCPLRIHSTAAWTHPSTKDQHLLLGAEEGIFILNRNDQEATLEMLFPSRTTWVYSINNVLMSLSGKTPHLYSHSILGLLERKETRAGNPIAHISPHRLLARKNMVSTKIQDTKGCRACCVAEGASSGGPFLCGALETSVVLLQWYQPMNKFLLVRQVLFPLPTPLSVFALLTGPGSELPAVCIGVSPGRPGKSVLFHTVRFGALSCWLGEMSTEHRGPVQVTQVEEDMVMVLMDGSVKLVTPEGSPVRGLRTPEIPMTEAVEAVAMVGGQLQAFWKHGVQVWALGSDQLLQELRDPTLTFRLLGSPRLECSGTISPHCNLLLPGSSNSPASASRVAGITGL
Regarding `CCS(=O)(=O)C[C@H](C)[C@@H](C)Oc1ncc(C(C)(C)N)c2cc(Nc3ccc4c(n3)[C@@H](C)C(C)(C)OC4=O)ncc12` (single isomer, unassigned) [Compound 131], the IC50 is 1940 pM.

On to `C[C@H](C[C@@H](C)S(C)(=O)=O)Oc1ncc([C@@](C)(N)C2CC2)c2cc(Nc3ccc4c(n3)[C@@H](C)C(C)(C)OC4=O)ncc12` (single isomer, unassigned) [Compound 137], for which the IC50 is 210 pM.

As to `CCC[C@@](C)(N)c1cnc(O[C@H](C)C[C@@H](C)S(C)(=O)=O)c2cnc(Nc3ccc4c(n3)[C@@H](C)C(C)(C)OC4=O)cc12` (single isomer, unassigned) [Compound 142], the IC50 was determined as 200 pM.

Take `CC[C@@](C)(N)c1cnc(O[C@@H](C)CCS(C)(=O)=O)c2cnc(Nc3ccc4c(n3)C3(CC3)[C@@H](C)OC4=O)cc12` (single isomer, unassigned) [Compound 147]: the IC50 came out at 460 pM.

In the case of `CC[C@@](C)(N)c1cnc(O[C@H]2C[C@@H](S(C)(=O)=O)C2)c2cnc(Nc3ccc4c(n3)[C@@H](C)[C@@H](C)OC4=O)cc12` (single isomer, unassigned) [Compound 149], the IC50 is 250 pM.

Regarding `C[C@@H]1OC(=O)c2ccc(Nc3cc4c(C(C)(C)N)cnc(O[C@@H](C)C[C@@H]5CCCS5(=O)=O)c4cn3)nc2[C@H]1C` (single isomer, unassigned) [Compound 154], the IC50 came to 620 pM.

On to `C[C@@H]1OC(=O)c2ccc(Nc3cc4c(C(C)(C)N)cnc(O[C@@H](C)C[C@@H]5CCCS5(=O)=O)c4cn3)nc2[C@H]1C` (single isomer, unassigned) [Compound 156], for which the IC50 was found to be 2380 pM.

`C[C@@H]1OC(=O)c2ccc(Nc3cc4c(C(C)(C)N)cnc(O[C@@H](C)C[C@@H]5CCCS5(=O)=O)c4cn3)nc2[C@H]1C` (single isomer, unassigned) [Compound 157]: the IC50 turned out to be 1570 pM.

Consider `C[C@H](C[C@H]1CCCS1(=O)=O)Oc1ncc(C(C)(C)N)c2cc(Nc3ccc4c(n3)[C@@H](C)C(C)(C)OC4=O)ncc12` (single isomer, unassigned) [Compound 158], for which the IC50 was determined as 860 pM.

With `C[C@H](C[C@H]1CCCS1(=O)=O)Oc1ncc(C(C)(C)N)c2cc(Nc3ccc4c(n3)[C@@H](C)C(C)(C)OC4=O)ncc12` (single isomer, unassigned) [Compound 159], the IC50 was determined as 420 pM.

For `C[C@H](C[C@H]1CCCS1(=O)=O)Oc1ncc(C(C)(C)N)c2cc(Nc3ccc4c(n3)[C@@H](C)C(C)(C)OC4=O)ncc12` (single isomer, unassigned) [Compound 160], the half-inhibitory concentration (IC50) is 1610 pM.

Regarding `C[C@H](C[C@H]1CCCS1(=O)=O)Oc1ncc(C(C)(C)N)c2cc(Nc3ccc4c(n3)[C@@H](C)C(C)(C)OC4=O)ncc12` (single isomer, unassigned) [Compound 161], the IC50 was determined as 940 pM.

With `COC[C@@](C)(N)c1cnc(O[C@H]2C[C@@H](S(C)(=O)=O)C2)c2cnc(Nc3ccc4c(n3)C3(CC3)[C@H](C)OC4=O)cc12` (single isomer, unassigned) [Compound 163], the concentration for half-maximal inhibition (IC50) was found to be 220 pM.

In the case of `COC[C@@](C)(N)c1cnc(O[C@H](C)C[C@@H](C)S(C)(=O)=O)c2cnc(Nc3ccc4c(n3)C3(CC3)[C@H](C)OC4=O)cc12` (single isomer, unassigned) [Compound 165], the IC50 was determined as 1150 pM.

On to `CC[C@@](C)(N)c1cnc(O[C@H](C)CC[S@@+](C)[O-])c2cnc(Nc3ccc4c(n3)[C@@H](C)[C@H](C)OC4=O)cc12` (single isomer, unassigned) [Compound 166], for which the half-inhibitory concentration (IC50) came to 200 pM.

Consider `CC[C@@](C)(N)c1cnc(O[C@H](C)CC[S@+](C)[O-])c2cnc(Nc3ccc4c(n3)[C@@H](C)[C@H](C)OC4=O)cc12` (single isomer, unassigned) [Compound 167], for which the half-inhibitory concentration (IC50) came to 190 pM.

Regarding `C[C@@H]1c2nc(Nc3cc4c(C(C)(C)N)cnc(OCCC[S@@](C)(=N)=O)c4cn3)ccc2C(=O)OC1(C)C` (single isomer, unassigned) [Compound 169], the IC50 was determined as 600 pM.

For `C[C@@H]1c2nc(Nc3cc4c(C(C)(C)N)cnc(O[C@@H](CCS(C)(=O)=O)C(F)(F)F)c4cn3)ccc2C(=O)OC1(C)C` (single isomer, unassigned) [Compound 172], the IC50 was 1860 pM.

Turning to `C[C@@H]1c2nc(Nc3cc4c(C(C)(C)N)cnc(O[C@H](CCS(C)(=O)=O)C(F)(F)F)c4cn3)ccc2C(=O)OC1(C)C` (single isomer, unassigned) [Compound 173], the IC50 stood at 9800 pM.

Take `C[C@@H]1OC(=O)c2ccc(Nc3cc4c(C(C)(C)N)cnc(O[C@@H](CCS(C)(=O)=O)C(F)(F)F)c4cn3)nc2[C@H]1C` (single isomer, unassigned) [Compound 174]: the IC50 came to 5350 pM.

As to `C[C@@H]1OC(=O)c2ccc(Nc3cc4c(C(C)(C)N)cnc(O[C@H](CCS(C)(=O)=O)C(F)(F)F)c4cn3)nc2[C@H]1C` (single isomer, unassigned) [Compound 175], the IC50 is 23300 pM.

Turning to `CC[C@@](C)(N)c1cnc(O[C@H](C)C[C@@H](C)[S@@](C)(=N)=O)c2cnc(Nc3ccc4c(n3)C3(CC3)[C@@H](C)OC4=O)cc12` (single isomer, unassigned) [Compound 180], the IC50 was 3030 pM.

With `CC[C@@](C)(N)c1cnc(O[C@@H](C)CC(C)(C)S(C)(=O)=O)c2cnc(Nc3ccc4c(n3)[C@@H](C)[C@H](C)OC4=O)cc12` (single isomer, unassigned) [Compound 184], the IC50 came out at 830 pM.

As for `CC[C@@](C)(N)c1cnc(O[C@@H](C)CC(C)(C)S(C)(=O)=O)c2cnc(Nc3ccc4c(n3)[C@@H](C)[C@H](C)OC4=O)cc12` (single isomer, unassigned) [Compound 185], the IC50 was 220 pM.

`CC[C@@](C)(N)c1cnc(O[C@H](C)CC(C)(C)[S@@](C)(=N)=O)c2cnc(Nc3ccc4c(n3)C(C)(C)[C@@H](C)OC4=O)cc12` (single isomer, unassigned) [Compound 187]: the IC50 came out at 2200 pM.

Take `CC[C@@](C)(N)c1cnc(O[C@H](C)CC(C)(C)[S@@](C)(=N)=O)c2cnc(Nc3ccc4c(n3)C(C)(C)[C@@H](C)OC4=O)cc12` (single isomer, unassigned) [Compound 188]: the IC50 is 960 pM.

Turning to `CC[C@@](C)(N)c1cnc(O[C@H](C)CC(C)(C)[S@@](C)(=N)=O)c2cnc(Nc3ccc4c(n3)C(C)(C)[C@@H](C)OC4=O)cc12` (single isomer, unassigned) [Compound 189], the IC50 is 1050 pM.

For the compound `CC[C@@](C)(N)c1cnc(O[C@H](C)CC(C)(C)[S@@](C)(=N)=O)c2cnc(Nc3ccc4c(n3)C(C)(C)[C@@H](C)OC4=O)cc12` (single isomer, unassigned) [Compound 190], the IC50 amounted to 5100 pM.

As for `CC[C@@](C)(N)c1cnc(O[C@@H](C)CC(C)(C)S(C)(=O)=O)c2cnc(Nc3ccc4c(n3)C(C)(C)[C@H](C)OC4=O)cc12` (single isomer, unassigned) [Compound 191], the IC50 was determined as 3670 pM.

With `CC[C@@](C)(N)c1cnc(O[C@@H](C)CC(C)(C)S(C)(=O)=O)c2cnc(Nc3ccc4c(n3)C(C)(C)[C@H](C)OC4=O)cc12` (single isomer, unassigned) [Compound 192], the IC50 amounted to 940 pM.

For `COC[C@@](C)(N)c1cnc(OCCCS(C)(=O)=O)c2cnc(Nc3ccc4c(n3)[C@@H](C)C(C)(C)OC4=O)cc12` (stereo in doubt) [Compound 179], the IC50 came to 490 pM.

On to `C[C@@H]1OC(=O)c2ccc(Nc3cc4c(C(C)(C)N)cnc(OC5CS(=O)(=O)C5)c4cn3)nc2[C@H]1C` [Compound 1], for which the IC50 stood at 260 pM.

For the compound `CC(C)(N)c1cnc(O[C@H]2C[C@@H](S(C)(=O)=O)C2)c2cnc(Nc3ccc4c(n3)C(C)(C)OC4=O)cc12` [Compound 4], the IC50 was 1850 pM.

As to `C[C@@H]1c2nc(Nc3cc4c(C(C)(C)N)cnc(OC5(C)CS(=O)(=O)C5)c4cn3)ccc2C(=O)OC1(C)C` [Compound 10], the IC50 is 120 pM.

In the case of `C[C@@H]1c2nc(Nc3cc4c(C(C)(C)N)cnc(OCC5CS(=O)(=O)C5)c4cn3)ccc2C(=O)OC1(C)C` [Compound 12], the half-inhibitory concentration (IC50) was 560 pM.

With `C[C@@H]1OC(=O)c2ccc(Nc3cc4c(C(C)(C)N)cnc(O[C@H]5C[C@H](S(C)(=O)=O)C5)c4cn3)nc2[C@H]1C` [Compound 14], the IC50 worked out at 280 pM.

With `C[C@@H]1c2nc(Nc3cc4c(C(C)(C)N)cnc(OCCCS(C)(=O)=O)c4cn3)ccc2C(=O)OC1(C)C` [Compound 17], the IC50 was determined as 150 pM.

On to `CC[C@@](C)(N)c1cnc(OCCCS(C)(=O)=O)c2cnc(Nc3ccc4c(n3)[C@@H](C)[C@H](C)OC4=O)cc12` [Compound 20], for which the IC50 stood at 130 pM.
